Holding throughout (type): ADME, organism-based
Data set [1] in a line: AUC (0 to last) in Shigella flexneri challenged human at […], po administered every 8 hrs for three days measured after last dose. Particulars: plasma. Also on record: time 0 - last, route oral.
A short description of data set [2]: Drug level in healthy human feces at 400 mg single dose. As to conditions: faeces, read-out: Drug uptake.
Data set [3] can be described thus: Tmax in Shigella flexneri challenged human at […], po administered every 8 hrs for three days measured after third dose. As to conditions: in vivo. Details: route oral.
The nature of data set [4]: AUC (0 to last) in Shigella flexneri challenged human at […], po administered every 8 hrs for three days measured after third dose. Also on record: route oral, time 0 - last. As to conditions: plasma.
Data set [5] in a line: Tmax in Shigella flexneri challenged human at […], po administered every 8 hrs for three days measured after last dose. Also on record: route oral. Particulars: in vivo.
Data set [6] can be described thus: Cmax in Shigella flexneri challenged human at […], po administered every 8 hrs for three days measured after last dose. As to conditions: in vivo. Details: route oral.
A short description of data set [7]: Oral bioavailability in human at 200 mg three times a day for 3 days. As to conditions: in vivo.
Data set [8] is described as follows: Drug level in healthy human urine at 400 mg single dose. Particulars: read-out: Drug uptake.
Data set [9] can be described thus: Cmax in Shigella flexneri challenged human at […], po administered every 8 hrs for three days measured after third dose. Also on record: route oral. As to conditions: in vivo.

A word on the AUC(0-t): it is the area under the concentration-time curve up to a stated or last time point. Low values mean less exposure, high ones more exposure. A word on the Tmax: it is the time from dosing to the highest level. What is called Cmax is the maximum level reached in the sampled fluid or tissue. For orientation: bioavailability means dose-corrected exposure relative to a reference, in per cent. A lower bioavailability goes with poor availability.

`CO[C@H]1/C=C/O[C@@]2(C)Oc3c(C)c(O)c4c(O)c(c5c(nc6cc(C)ccn65)c4c3C2=O)NC(=O)/C(C)=C\C=C\[C@H](C)[C@H](O)[C@@H](C)[C@@H](O)[C@@H](C)[C@H](OC(C)=O)[C@@H]1C` [RIFAXIMIN]: the AUC(0-t) at 8 h in [1] came to 7.83 ng·h/mL; in data set [4], 6.95 ng·h/mL. The dose excreted was 97% in data set [2] and 0.32% in data set [8]. Also, the time of peak concentration (Tmax) was 2.77 h in [3] and 2.11 h in data set [5]. In addition, the Cmax in data set [6] was 1.23 ng/mL; in data set [9], 1.63 ng/mL. Besides, the bioavailability in data set [7] is under 0.4%.

For the origin of these results see ChEMBL document CHEMBL1255246, “Systemic pharmacokinetics of rifaximin in volunteers with shigellosis” (Antimicrob Agents Chemother, 2008).
